Laboratory results reported in PubChem BioAssay (NCI).
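Exposure lasted 48 hours, with cells grown in 96-well plates and compounds tested at five concentrations. TGI: concentration producing complete growth inhibition.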

Experiments:
Experiment in all cases: NCI anticancer screen, dose series, 48 h
MDA-N = tested on: MDA-N
OVCAR-3 ovarian = tested on: OVCAR-3 ovarian
SF-539 CNS = tested on: SF-539 CNS
RPMI-8226 leukemia = tested on: RPMI-8226 leukemia
SK-MEL-5 melanoma = tested on: SK-MEL-5 melanoma
HCT-116 colon = tested on: HCT-116 colon
SN12C renal = tested on: SN12C renal
U251 CNS = tested on: U251 CNS
HT29 colon = tested on: HT29 colon
BT-549 breast = tested on: BT-549 breast
NCI-H226 lung = tested on: NCI-H226 lung
M14 melanoma = tested on: M14 melanoma
MDA-MB-435 = tested on: MDA-MB-435
786-0 renal = tested on: 786-0 renal
UO-31 renal = tested on: UO-31 renal
COLO 205 colon = tested on: COLO 205 colon
CAKI-1 renal = tested on: CAKI-1 renal
T-47D breast = tested on: T-47D breast
NCI-H23 lung = tested on: NCI-H23 lung
ACHN renal = tested on: ACHN renal

## Cn1ccnc1SC(F)(F)c1nc2ccccc2o1
MDA-N
  TGI: > 100 µM
OVCAR-3 ovarian
  TGI: > 100 µM
SF-539 CNS
  TGI: > 100 µM
RPMI-8226 leukemia
  TGI: > 100 µM
SK-MEL-5 melanoma
  TGI: > 100 µM
HCT-116 colon
  TGI: > 100 µM
SN12C renal
  TGI: > 100 µM
U251 CNS
  TGI: > 100 µM
HT29 colon
  TGI: > 100 µM
BT-549 breast
  TGI: > 100 µM
NCI-H226 lung
  TGI: > 100 µM
M14 melanoma
  TGI: > 100 µM
MDA-MB-435
  TGI: > 100 µM
786-0 renal
  TGI: > 100 µM
UO-31 renal
  TGI: > 100 µM
COLO 205 colon
  TGI: > 100 µM
CAKI-1 renal
  TGI: > 100 µM
T-47D breast
  TGI: > 100 µM
NCI-H23 lung
  TGI: > 100 µM
ACHN renal
  TGI: > 100 µM

## Cc1cc(C)c2c(=O)n(CN3CCN(c4ccccc4)CC3)sc2n1
MDA-N
  TGI: 60.4 µM
OVCAR-3 ovarian
  TGI: 99.6 µM
SF-539 CNS
  TGI: 37.5 µM
SK-MEL-5 melanoma
  TGI: > 100 µM
HCT-116 colon
  TGI: 35.1 µM
SN12C renal
  TGI: 87 µM
U251 CNS
  TGI: 56.2 µM
HT29 colon
  TGI: 34.6 µM
BT-549 breast
  TGI: > 100 µM
NCI-H226 lung
  TGI: > 100 µM
M14 melanoma
  TGI: 76.6 µM
MDA-MB-435
  TGI: > 100 µM
786-0 renal
  TGI: 31.4 µM
UO-31 renal
  TGI: 40.7 µM
COLO 205 colon
  TGI: 41.3 µM
CAKI-1 renal
  TGI: 39.4 µM
T-47D breast
  TGI: 33.8 µM
NCI-H23 lung
  TGI: 85.2 µM
ACHN renal
  TGI: 35.2 µM

## COC(OC)C1(c2ccccc2)Oc2ccccc2C1=O (centres undefined)
MDA-N
  TGI: > 100 µM
OVCAR-3 ovarian
  TGI: > 100 µM
SF-539 CNS
  TGI: > 100 µM
RPMI-8226 leukemia
  TGI: > 100 µM
SK-MEL-5 melanoma
  TGI: > 100 µM
HCT-116 colon
  TGI: > 100 µM
SN12C renal
  TGI: > 100 µM
U251 CNS
  TGI: > 100 µM
HT29 colon
  TGI: > 100 µM
BT-549 breast
  TGI: > 100 µM
NCI-H226 lung
  TGI: > 100 µM
M14 melanoma
  TGI: > 100 µM
MDA-MB-435
  TGI: > 100 µM
786-0 renal
  TGI: > 100 µM
COLO 205 colon
  TGI: > 100 µM
CAKI-1 renal
  TGI: > 100 µM
T-47D breast
  TGI: > 100 µM
NCI-H23 lung
  TGI: > 100 µM
ACHN renal
  TGI: > 100 µM

## Cc1cc(C)nc(NC(=S)Nc2cccc(Cl)c2)c1
MDA-N
  TGI: > 100 µM
OVCAR-3 ovarian
  TGI: > 100 µM
SF-539 CNS
  TGI: > 100 µM
RPMI-8226 leukemia
  TGI: > 100 µM
HCT-116 colon
  TGI: > 100 µM
SN12C renal
  TGI: > 100 µM
U251 CNS
  TGI: > 100 µM
HT29 colon
  TGI: > 100 µM
BT-549 breast
  TGI: > 100 µM
NCI-H226 lung
  TGI: > 100 µM
M14 melanoma
  TGI: > 100 µM
MDA-MB-435
  TGI: > 100 µM
786-0 renal
  TGI: > 100 µM
UO-31 renal
  TGI: > 100 µM
COLO 205 colon
  TGI: > 100 µM
CAKI-1 renal
  TGI: > 86.5 µM
T-47D breast
  TGI: > 100 µM
NCI-H23 lung
  TGI: > 100 µM
ACHN renal
  TGI: > 100 µM

## Nc1nc(N)nc(-c2cnc3ccccc3c2)n1
MDA-N
  TGI: > 100 µM
OVCAR-3 ovarian
  TGI: > 100 µM
SF-539 CNS
  TGI: > 100 µM
HCT-116 colon
  TGI: > 100 µM
SN12C renal
  TGI: > 100 µM
U251 CNS
  TGI: > 100 µM
BT-549 breast
  TGI: > 100 µM
NCI-H226 lung
  TGI: > 100 µM
M14 melanoma
  TGI: > 100 µM
MDA-MB-435
  TGI: > 100 µM
786-0 renal
  TGI: > 100 µM
UO-31 renal
  TGI: > 100 µM
COLO 205 colon
  TGI: > 100 µM
CAKI-1 renal
  TGI: > 100 µM
T-47D breast
  TGI: > 100 µM
NCI-H23 lung
  TGI: > 100 µM
ACHN renal
  TGI: > 100 µM

## COc1ccc(-c2cn3c(nc4ccccc43)c(C)n2)cc1
MDA-N
  TGI: > 100 µM
OVCAR-3 ovarian
  TGI: > 100 µM
SF-539 CNS
  TGI: > 100 µM
RPMI-8226 leukemia
  TGI: > 100 µM
SK-MEL-5 melanoma
  TGI: > 100 µM
HCT-116 colon
  TGI: > 100 µM
SN12C renal
  TGI: > 100 µM
U251 CNS
  TGI: > 100 µM
HT29 colon
  TGI: > 100 µM
BT-549 breast
  TGI: > 100 µM
NCI-H226 lung
  TGI: > 100 µM
M14 melanoma
  TGI: > 100 µM
MDA-MB-435
  TGI: > 100 µM
786-0 renal
  TGI: > 100 µM
UO-31 renal
  TGI: > 64.6 µM
COLO 205 colon
  TGI: > 100 µM
CAKI-1 renal
  TGI: > 100 µM
T-47D breast
  TGI: > 67.3 µM
NCI-H23 lung
  TGI: > 100 µM
ACHN renal
  TGI: > 100 µM

## Nc1ccc(S(=O)(=O)Nc2nc3ccccc3nc2Nc2ccc(S(N)(=O)=O)cc2)cc1
MDA-N
  TGI: > 100 µM
OVCAR-3 ovarian
  TGI: > 100 µM
SF-539 CNS
  TGI: > 100 µM
RPMI-8226 leukemia
  TGI: > 100 µM
SK-MEL-5 melanoma
  TGI: > 100 µM
HCT-116 colon
  TGI: > 100 µM
SN12C renal
  TGI: > 100 µM
U251 CNS
  TGI: > 100 µM
HT29 colon
  TGI: > 100 µM
BT-549 breast
  TGI: 62.1 µM
NCI-H226 lung
  TGI: > 100 µM
M14 melanoma
  TGI: > 100 µM
MDA-MB-435
  TGI: > 100 µM
786-0 renal
  TGI: > 100 µM
UO-31 renal
  TGI: 56.2 µM
COLO 205 colon
  TGI: > 100 µM
CAKI-1 renal
  TGI: > 100 µM
T-47D breast
  TGI: > 100 µM
NCI-H23 lung
  TGI: 48 µM
ACHN renal
  TGI: > 100 µM

## CCOC(=O)CC/C(C)=N\n1c(Cc2ccc(Cl)cc2)n[nH]c1=O
MDA-N
  TGI: > 100 µM
OVCAR-3 ovarian
  TGI: > 100 µM
SF-539 CNS
  TGI: > 100 µM
RPMI-8226 leukemia
  TGI: > 100 µM
SK-MEL-5 melanoma
  TGI: > 100 µM
HCT-116 colon
  TGI: > 100 µM
SN12C renal
  TGI: > 100 µM
U251 CNS
  TGI: > 100 µM
HT29 colon
  TGI: > 100 µM
BT-549 breast
  TGI: > 100 µM
NCI-H226 lung
  TGI: > 100 µM
M14 melanoma
  TGI: > 100 µM
MDA-MB-435
  TGI: > 100 µM
786-0 renal
  TGI: > 100 µM
UO-31 renal
  TGI: > 100 µM
CAKI-1 renal
  TGI: > 100 µM
T-47D breast
  TGI: > 100 µM
NCI-H23 lung
  TGI: > 100 µM
ACHN renal
  TGI: > 100 µM

## CCOP(=O)(OCC)/C(=C/c1ccccc1)CC(C)=O
MDA-N
  TGI: > 100 µM
OVCAR-3 ovarian
  TGI: > 100 µM
SF-539 CNS
  TGI: > 100 µM
SK-MEL-5 melanoma
  TGI: > 100 µM
HCT-116 colon
  TGI: > 100 µM
SN12C renal
  TGI: > 100 µM
U251 CNS
  TGI: > 100 µM
HT29 colon
  TGI: > 100 µM
BT-549 breast
  TGI: > 100 µM
NCI-H226 lung
  TGI: > 100 µM
M14 melanoma
  TGI: > 100 µM
MDA-MB-435
  TGI: > 100 µM
786-0 renal
  TGI: > 100 µM
UO-31 renal
  TGI: > 100 µM
COLO 205 colon
  TGI: > 100 µM
CAKI-1 renal
  TGI: > 100 µM
T-47D breast
  TGI: > 100 µM
NCI-H23 lung
  TGI: > 100 µM
ACHN renal
  TGI: > 100 µM

## COc1cc(O)c2c(=O)c3ccccc3n(C)c2c1
MDA-N
  TGI: > 100 µM
OVCAR-3 ovarian
  TGI: > 100 µM
SF-539 CNS
  TGI: > 100 µM
SK-MEL-5 melanoma
  TGI: > 100 µM
HCT-116 colon
  TGI: > 100 µM
SN12C renal
  TGI: > 100 µM
U251 CNS
  TGI: > 100 µM
HT29 colon
  TGI: > 100 µM
BT-549 breast
  TGI: > 100 µM
NCI-H226 lung
  TGI: > 100 µM
M14 melanoma
  TGI: > 100 µM
MDA-MB-435
  TGI: > 100 µM
786-0 renal
  TGI: > 100 µM
UO-31 renal
  TGI: > 100 µM
COLO 205 colon
  TGI: > 100 µM
CAKI-1 renal
  TGI: > 100 µM
T-47D breast
  TGI: > 100 µM
NCI-H23 lung
  TGI: > 100 µM
ACHN renal
  TGI: > 100 µM

## COc1cc(/C=C2/C[C@H]3[C@@H]4CCC5=CC(=O)CC[C@]5(C)[C@H]4CC[C@]3(C)NC2=O)cc(OC)c1OC
MDA-N
  TGI: > 100 µM
OVCAR-3 ovarian
  TGI: > 100 µM
RPMI-8226 leukemia
  TGI: > 100 µM
SK-MEL-5 melanoma
  TGI: 52.4 µM
HCT-116 colon
  TGI: > 100 µM
SN12C renal
  TGI: > 100 µM
U251 CNS
  TGI: 57.1 µM
HT29 colon
  TGI: > 100 µM
BT-549 breast
  TGI: 53.7 µM
NCI-H226 lung
  TGI: > 100 µM
M14 melanoma
  TGI: > 100 µM
MDA-MB-435
  TGI: > 100 µM
786-0 renal
  TGI: > 100 µM
UO-31 renal
  TGI: 26.8 µM
COLO 205 colon
  TGI: 44.4 µM
CAKI-1 renal
  TGI: > 100 µM
T-47D breast
  TGI: 63 µM
NCI-H23 lung
  TGI: 57.3 µM
ACHN renal
  TGI: > 100 µM

## NNC(=O)CC(=O)Nc1ccc(C(=O)O)cc1
MDA-N
  TGI: > 100 µM
OVCAR-3 ovarian
  TGI: > 100 µM
SF-539 CNS
  TGI: > 100 µM
RPMI-8226 leukemia
  TGI: > 100 µM
SK-MEL-5 melanoma
  TGI: > 100 µM
HCT-116 colon
  TGI: > 100 µM
SN12C renal
  TGI: > 100 µM
U251 CNS
  TGI: > 100 µM
HT29 colon
  TGI: > 100 µM
BT-549 breast
  TGI: > 100 µM
NCI-H226 lung
  TGI: > 100 µM
MDA-MB-435
  TGI: > 100 µM
786-0 renal
  TGI: > 100 µM
UO-31 renal
  TGI: > 100 µM
COLO 205 colon
  TGI: > 100 µM
CAKI-1 renal
  TGI: > 100 µM
T-47D breast
  TGI: > 100 µM
NCI-H23 lung
  TGI: > 100 µM
ACHN renal
  TGI: > 100 µM
